Reference: paper PMC8309005, “Novel Non-Congeneric Derivatives of the Choline Kinase Alpha Inhibitor ICL-CCIC-0019” (Pharmaceutics, 2021)
Where two headings read alike, the source gives them in different places.

Columns and labels:
[1] = system: eight cell lines (22Rv1, C4-2B, LNCap, PC3, PNT1A, R1-AD1, R1-D567, HCT-116); test: Anti-proliferative SRB assay, mean across eight cell lines; assay type: cell-based; conditions: Homo sapiens
Method: Half-maximal growth inhibitory concentrations (GI50) were determined using sulforhodamine B (SRB) assay as described elsewhere. In brief, cells were seeded in 96-wells at respective cell densities determined by their cell growth curves. After 24 h, the cells were treated in six replicates with medium or different concentrations of CHKA inhibitors in medium and incubated for another 72 h. On completion of incubation, the cells were fixed with 10% trichloroacetic acid (TCA) and stained with 0.4% SRB in 1% acetic acid. The stained protein was solubilized with 10 mM Tris base and optical density values were measured at 540 nm using a Multiskan® EX Micro plate photometer (Thermo Scientific, Loughborough, UK). Growth inhibition curves were plotted as percentage of the control groups and GI50 data were determined by least squares fitting method using GraphPad Prism 7.0. All the chemicals used in this experiment were obtained from Sigma-Aldrich (Gillingham, UK).

[2] = system: MCF-10A and ST-T1B (2 normal cell lines); conditions: read-out: GI50 range of 2 normal cell lines (MCF-10A and ST-T1B); cited from earlier work
HCT-116 = conditions: cited from earlier work
A549 = conditions: cited from earlier work
8 cancer cell lines = system: 8 cancer cell lines; parameters: method as in PMID 27206796; conditions: cited from earlier work
HCT116 xenografts = conditions: cited from earlier work
[3] = system: Δ49N CHKA2 (recombinant CHKA2); conditions: read-out: IC50 Δ49N CHKA2; cited from earlier work

## CN(C)c1cc[n+](CCCCCCCCCCCCCC[n+]2ccc(N3CCNCC3)cc2)cc1 [CK146]
[1]
  GI50: 3.8 ± 0.9 µM

## CN(C)c1cc[n+](CCCCCCCCCCCC[n+]2ccc(N(C)C)cc2)cc1 [ICL-CCIC-0019]
[2]
  GI50: 30 to 120 µM
HCT-116
  GI50: 0.64 µM
[1]
  GI50: 0.6 ± 0.1 µM
A549
  GI50: 0.38 µM
8 cancer cell lines; read-out: GI50 range of 8 cancer cell lines
  GI50: 0.38 to 2.7 µM
8 cancer cell lines; read-out: mean GI50 of 8 cancer cell lines
  GI50: 1.09 µM
HCT116 xenografts
  in vivo anti-tumor activity (in words): potent in vivo anti-tumor activity
HCT116 xenografts; in vivo
  body weight effect (in words): slight reduction in body weight
[3]
  IC50: 0.27 ± 0.06 µM
